Converted amounts (≈) assume the structure as drawn. “Also recorded” adds a separate entry of the source.
What was measured:
β-glucosidase = test: Inhibitory activity against glycosidase (β-glucosidase); assay type: biochemical, baker's yeast
Method: (§1) After keeping at 37° C. for 40 min, the reaction substrate, p-nitrophenyl glucoside (2.5 mM, 20 μl), was added in each well, and kept at 37° C. for 5 min. The reaction was terminated by addition of buffer, 0.1 M Na2CO3 100 μl, and the OD value was determined at 405 nm by colorimetric method. 0.067M phosphate buffer containing 10% DMSO was used instead of the compounds in negative control group. Inhibition rate=(1−OD value of experimental group/OD value of negative control group)×100%, the IC50 value was calculated by drawing.

[1] = system: Human esophageal carcinoma Ec109 cells; test: MTT activity against esophageal carcinoma Ec109 cells; assay type: cell-based
Method: Human esophageal carcinoma Ec109 cells were taken as target cells (Henan Institute of Medical Sciences), which were cultured in RPMI1640 medium (GIBCO) with 10% fetal bovine serum (TBD) at 37° C., in 5% CO2. The cells in logarithmic growth phase were inoculated in a 96-well plate, each well containing 6×10^3 cells. After 24 hours culture, the Jiyuan oridonin A (the compound obtained in example 1), derivative 1 and derivative 2 in different concentrations were added. After continuous 48 hours culture, the medical solution was removed carefully by absorption, followed by washing with RPMI 1640 medium without fetal bovine serum 3 times. 200 μL of medium with 0.2 mg/mL MTT were added in each well and incubated at 37° C. for 4 hours. The supernatant was removed and 200 μL of DMSO was added. After 10 min of shaking, the colorimetric method was used to determine the OD value of the control group and sample groups by an enzyme-labeling instrument with a detection wavelength of 570 nm, and a reference wavelength of 450 nm. The inhibition rate against cells of drugs in different concentrations was calculated and hemi-inhibitory concentration IC50 (μg/mL) was calculated based on cell inhibition curve.

α-glucosidase = test: Inhibitory activity against glycosidase (α-glucosidase); assay type: biochemical, baker's yeast
Method: as §1

Compound: C=C1C(=O)C23C([C@@H](O)CC1[C@H]2O)[C@]12CCCC(C)(C)C1C[C@H]3OC2O (stereo partly drawn) [Jiyuan oridonin A]
- Inhibitory activity against β-glucosidase (β-glucosidase; compound concentration of 1 mM): 25.0
- inhibitory activity against β-glucosidase in vitro (conclusion in words) (β-glucosidase; in vitro): certain inhibitory activity
- cytotoxic activity against Ec109 cell (conclusion in words) ([1]; Ec109 cell): higher cytotoxic activity; also recorded: highest activity
- IC50 ([1]; Homo sapiens, ECa-109, Ec109 cells, 48 hours culture, MTT): 4.52 µg/mL (≈ 13 µM)
- Inhibitory activity against α-glucosidase (α-glucosidase; compound concentration of 1 mM): 26.3
- inhibitory activity against α-glucosidase in vitro (conclusion in words) (α-glucosidase; in vitro): certain inhibitory activity
